Data from patent US10759794B2, “2-phenyl-3-(piperazinomethyl)imidazo[1,2-A]pyridine derivatives as blockers of task-1 and task-2 channels, for the treatment of sleep-related breathing disorders” (BAYER PHARMA AKTIENGESELLSCHAFT, priority 2015, dated 2020).

What was measured:
human TASK-3 = human TASK-3 (Homo sapiens (Human), UniProt Q9NPC2); test: Inhibition of recombinant TASK-3 in stably transfected CHO cells (voltage-sensitive dye, FLIPR); format: cell-based
Experimental: (§1) B-2. Inhibition of Recombinant TASK-1 and TASK-3 In Vitro
(§2) The investigations on the inhibition of the recombinant TASK-1 and TASK-3 channels were carried out using stably transfected CHO cells. Here, the compounds according to the invention were tested with administration of 40 mM of potassium chloride in the presence of a voltage-sensitive dye using the method described in detail in the following references [Whiteaker et al., Validation of FLIPR membrane potential dye for high-throughput screening of potassium channel modulators, J. Biomol. Screen. 6 (5), 305-312 (2001); Molecular Devices FLIPR Application Note: Measuring membrane potential using the FLIPR® membrane potential assay kit on Fluorometric Imaging Plate Reader (FLIPR®) systems, http://www.moleculardevices.com/reagents-supplies/assay-kits/ion-channels/flipr-membrane-potential-assay-kits]. The activity of the test substances was determined as their ability to inhibit a depolarization induced in the recombinant cells by 40 mM potassium chloride. The concentration which can block half of this depolarization is referred to as IC50.

human TASK-1 = human TASK-1 (Homo sapiens (Human), UniProt O14649); test: Inhibition of recombinant TASK-1 in stably transfected CHO cells (voltage-sensitive dye, FLIPR); format: cell-based
Chain of human TASK-1 (O14649 whole entry): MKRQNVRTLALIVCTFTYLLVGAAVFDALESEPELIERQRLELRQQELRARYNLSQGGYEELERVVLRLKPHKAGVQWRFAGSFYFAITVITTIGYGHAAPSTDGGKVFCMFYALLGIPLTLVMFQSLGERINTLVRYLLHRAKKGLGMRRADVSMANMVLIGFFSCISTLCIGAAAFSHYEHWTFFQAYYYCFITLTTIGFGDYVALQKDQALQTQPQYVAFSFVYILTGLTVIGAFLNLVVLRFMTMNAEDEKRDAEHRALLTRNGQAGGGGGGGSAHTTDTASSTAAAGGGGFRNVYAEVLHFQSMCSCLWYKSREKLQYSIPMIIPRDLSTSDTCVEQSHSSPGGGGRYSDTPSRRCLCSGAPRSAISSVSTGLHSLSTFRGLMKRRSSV
Experimental: as §1, §2

[1] = depolarization induced by 40 mM potassium chloride, Table 2A
[2] = 40 mM potassium chloride, comparative compounds, Table 2B

Chain of human TASK-3 (Q9NPC2 whole entry): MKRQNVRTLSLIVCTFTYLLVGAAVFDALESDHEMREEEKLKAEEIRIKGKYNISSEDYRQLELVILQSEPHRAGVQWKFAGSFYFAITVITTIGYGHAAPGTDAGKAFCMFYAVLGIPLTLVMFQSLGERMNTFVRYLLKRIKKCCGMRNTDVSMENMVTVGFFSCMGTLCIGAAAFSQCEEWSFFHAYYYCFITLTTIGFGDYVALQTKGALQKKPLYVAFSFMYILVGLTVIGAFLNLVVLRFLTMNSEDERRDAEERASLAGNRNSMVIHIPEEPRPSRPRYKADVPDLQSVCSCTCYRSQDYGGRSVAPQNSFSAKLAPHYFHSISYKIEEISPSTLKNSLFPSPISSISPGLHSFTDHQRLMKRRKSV

## CC(C)c1cccc(C(=O)N2CCN(Cc3c(-c4ccc(Cl)cc4)nc4ccccn34)CC2)c1 [Example 33]
Human TASK-3; [1]
  IC50: 2000 nM
Human TASK-1; [1]
  IC50: 2500 nM

## COc1ccc(F)cc1C(=O)N1CCN(Cc2c(-c3ccc(F)cc3)nc3ccccn23)CC1 [Example 50]
Human TASK-3; [1]
  IC50: 1400 nM
Human TASK-1; [1]
  IC50: 1620 nM

## O=C(c1ccccc1Cl)N1CCN(Cc2c(-c3ccc(Cl)cc3)nc3ccc(-c4ccccc4)cn23)CC1 [WO 2014/187922 Example 64, reference compound]
Human TASK-3; [2]
  IC50: 2200 nM
Human TASK-1; [2]
  IC50: 30000 nM

## COc1ccc(Cl)c(C(=O)N2CCN(Cc3c(-c4ccc(Cl)cc4)nc4ccccn34)CC2)c1 [Example 29]
Human TASK-3; [1]
  IC50: 99 nM
Human TASK-1; [1]
  IC50: 1200 nM

## COc1ccc(F)cc1C(=O)N1CCN(Cc2c(-c3ccc(Cl)cc3)nc3ccccn23)CC1 [Example 21]
Human TASK-3; [1]
  IC50: 150 nM
Human TASK-1; [1]
  IC50: 454 nM

## COc1ccccc1C(=O)N1CCN(Cc2c(-c3ccc(F)cc3)nc3ccccn23)CC1 [Example 52]
Human TASK-3; [1]
  IC50: 560 nM
Human TASK-1; [1]
  IC50: 1160 nM

## COc1ccc(C)c(C(=O)N2CCN(Cc3c(-c4ccc(C#N)cc4)nc4ccccn34)CC2)n1 [Example 71]
Human TASK-3; [1]
  IC50: 16 nM
Human TASK-1; [1]
  IC50: 230 nM

## CC(C)Oc1cccc(C(=O)N2CCN(Cc3c(-c4ccc(Cl)cc4)nc4ccccn34)CC2)c1 [Example 31]
Human TASK-3; [1]
  IC50: 1300 nM
Human TASK-1; [1]
  IC50: 2100 nM

## O=C(C1CCCCC1)N1CCN(Cc2c(-c3ccc(Br)cc3)nc3ccccn23)CC1 [Example 9]
Human TASK-3; [1]
  IC50: 200 nM
Human TASK-1; [1]
  IC50: 232 nM

## COc1ccc(C)c(C(=O)N2CCN(Cc3c(-c4ccc(Cl)cc4)nc4ccccn34)CC2)n1 [Example 72]
Human TASK-3; [1]
  IC50: 3 nM
Human TASK-1; [1]
  IC50: 71 nM

## COc1ccc(C)c(C(=O)N2CCN(Cc3c(-c4ccc(Br)cc4)nc4ccccn34)CC2)n1 [Example 74]
Human TASK-3; [1]
  IC50: 9.1 nM
Human TASK-1; [1]
  IC50: 67 nM

## CC(C)(C)c1ccc(-c2nc3ccccn3c2CN2CCN(C(=O)C3CCCC3)CC2)cc1 [Example 66]
Human TASK-3; [1]
  IC50: 830 nM
Human TASK-1; [1]
  IC50: 1500 nM

## Cc1ccc(F)cc1C(=O)N1CCN(Cc2c(-c3ccc(Br)cc3)nc3ccccn23)CC1 [Example 15]
Human TASK-3; [1]
  IC50: 380 nM
Human TASK-1; [1]
  IC50: 1170 nM

## CCOc1ccccc1C(=O)N1CCN(Cc2c(-c3ccc(Cl)cc3)nc3ccccn23)CC1 [Example 28]
Human TASK-3; [1]
  IC50: 14 nM
Human TASK-1; [1]
  IC50: 510 nM

## COc1ccccc1C(=O)N1CCN(Cc2c(-c3ccc(Br)cc3)nc3ccccn23)CC1 [Example 12]
Human TASK-3; [1]
  IC50: 71 nM
Human TASK-1; [1]
  IC50: 409 nM

## O=C(c1ccncc1)N1CCN(Cc2c(-c3ccc(Cl)cc3)nc3ccc(C4CC4)cn23)CC1 [WO 2014/187922 Example 196, reference compound]
Human TASK-3; [2]
  IC50: 30000 nM
Human TASK-1; [2]
  IC50: 30000 nM

## O=C(c1cccc(OCC(F)(F)F)n1)N1CCN(Cc2c(-c3ccc(Cl)cc3)nc3ccccn23)CC1 [Example 38]
Human TASK-3; [1]
  IC50: 30 nM
Human TASK-1; [1]
  IC50: 1000 nM

## O=C(c1cccc(OC2CCOCC2)n1)N1CCN(Cc2c(-c3ccc(Cl)cc3)nc3ccccn23)CC1 [Example 46]
Human TASK-3; [1]
  IC50: 240 nM
Human TASK-1; [1]
  IC50: 1200 nM

## O=C(C1CCCCC1)N1CCN(Cc2c(-c3ccc(F)cc3)nc3ccccn23)CC1 [Example 8, (4-{[2-(4-Fluorophenyl)imidazo[1,2-a]pyridin-3-yl]methyl}piperazin-1-yl)(cyclohexyl)methanone]
Human TASK-3; [1]
  IC50: 2500 nM
Human TASK-1; [1]
  IC50: 893 nM

## CC(C)c1ccccc1C(=O)N1CCN(Cc2c(-c3ccc(Cl)cc3)nc3ccccn23)CC1 [Example 34]
Human TASK-3; [1]
  IC50: 63 nM
Human TASK-1; [1]
  IC50: 400 nM

## O=C(c1cccc(OC(F)(F)F)n1)N1CCN(Cc2c(-c3ccc(Cl)cc3)nc3ccccn23)CC1 [Example 67, (4-{[2-(4-Chlorophenyl)imidazo [1,2-a]pyridin-3-yl]methyl}piperazin-1-yl) [6-(trifluoromethoxy)pyridin-2-yl]methanone]
Human TASK-3; [1]
  IC50: 9.4 nM
Human TASK-1; [1]
  IC50: 42 nM

## O=C(c1cccc(C(F)(F)F)c1)N1CCN(Cc2c(-c3ccc(Cl)cc3)nc3ccccn23)CC1 [Example 25]
Human TASK-3; [1]
  IC50: 820 nM
Human TASK-1; [1]
  IC50: 1900 nM

## Cc1ccc(-c2nc3ccccn3c2CN2CCN(C(=O)C3CCCCC3)CC2)cc1 [Example 57]
Human TASK-3; [1]
  IC50: 2900 nM
Human TASK-1; [1]
  IC50: 962 nM

## O=C(c1cc(F)ccc1Cl)N1CCN(Cc2c(-c3ccc(Cl)cc3)nc3ccccn23)CC1 [Example 16]
Human TASK-3; [1]
  IC50: 110 nM
Human TASK-1; [1]
  IC50: 304 nM

## O=C(c1cccc(OC(F)(F)F)c1)N1CCN(Cc2c(-c3ccc(Cl)cc3)nc3ccccn23)CC1 [Example 24]
Human TASK-3; [1]
  IC50: 810 nM
Human TASK-1; [1]
  IC50: 1140 nM

## O=C(C1CCCC1)N1CCN(Cc2c(-c3ccc(F)cc3)nc3ccccn23)CC1 [Example 48]
Human TASK-3; [1]
  IC50: 830 nM
Human TASK-1; [1]
  IC50: 551 nM

## O=C(c1cccc(OC2CCC2)n1)N1CCN(Cc2c(-c3ccc(Cl)cc3)nc3ccccn23)CC1 [Example 41]
Human TASK-3; [1]
  IC50: 190 nM
Human TASK-1; [1]
  IC50: 1300 nM

## O=C(C1CCC1)N1CCN(Cc2c(-c3ccc(Cl)cc3)nc3ccccn23)CC1 [Example 18]
Human TASK-3; [1]
  IC50: 120 nM
Human TASK-1; [1]
  IC50: 242 nM
